# Assay results: ChEMBL document CHEMBL1944511, “Bakuchiol derivatives as novel and potent cytotoxic agents: a report” (Eur J Med Chem, 2012)
# Test system: HL-60
# Assay: Induction of apoptosis in human HL60 cells assessed as loss of mitochondrial membrane potential at 5 uM after 24 hrs by rodamine-123 staining-based flow cytometric analysis (reference value: 6%)
# Type: functional
smiles,measurement,value
CC[C@@]1(O)C(=O)OCc2c1cc1n(c2=O)Cc2cc3ccccc3nc2-1 [CAMPTOTHECIN],Activity,55.5%
